Literature values, collected in US6652866B1 (priority 1997, dated 2003).

Test system: scrapie
Details: hamsters

## C[C@@H]1[C@H](O)[C@@H](C)/C=C/C=C/C=C/C=C/C=C/C=C/C=C/[C@H](O[C@@H]2O[C@H](C)[C@@H](O)[C@H](N)[C@@H]2O)C[C@@H]2O[C@](O)(C[C@@H](O)C[C@@H](O)[C@H](O)CC[C@@H](O)C[C@@H](O)CC(=O)O[C@H]1C)C[C@H](O)[C@H]2C(=O)O [amphoteracin-b]
  incubation time of scrapie: prolonged the incubation time
  prevention of onset of neurological symptoms, neuronal destruction and death: ineffective
